These results are taken from patent publication US12655142B2 (Merck Patent GmbH, priority 2019, dated 2026).

One assay has as its target T1, c-Kit(V654A) (Homo sapiens, UniProt P10721, V654A).
T1 construct: recombinant human c-Kit, amino acids 544-end containing the V654A mutation; GST (N)
The experiment in a line: c-Kit(V654A) assay (33P-ATP filter binding kinase assay). It is filed as biochemical. The note with it: recombinant human c-Kit aa 544-end V654A, ATP 200 μM. As for the experimental part: c-Kit(V654A) (N-terminal GST-tagged, recombinant human c-Kit, amino acids 544-end containing the V654A mutation) is incubated with 8 mM MOPS pH 7.0, 0.2 mM EDTA, 250 μM GGMEDIYEFMGGKKK, 10 mM MgAcetate and [gamma-33P-ATP] (specific activity approx. 500 cpm/pmol, concentration 200 μM). The reaction is initiated by the addition of the MgATP mix. After incubation for 40 minutes at room temperature, the reaction is stopped by the addition of 3% phosphoric acid solution. 10 μL of the reaction is then spotted onto a P30 filtermat and washed three times for 5 minutes in 75 mM phosphoric acid and once in methanol prior to drying and scintillation counting.

The target in assay [1] is T2, GIST430/654 cell line expressing mutated constitutively active cKIT receptor tyrosine kinase (Δ560-576 deletion and V654A point mutation) (Homo sapiens, UniProt P10721, DEL560-576/V654A).
T2 construct: endogenous in cells; host or cells: GIST430/654 cells
The experiment in a line: Cellular cKIT autophosphorylation (phospho-Y307-cKIT, Luminex bead assay) in GIST430/654 cells. The note with it: compounds 45 min, read-out: GIST 430/654 IC50. The format is cell-based. As to the method:
Assay Principle for Cellular Testing of cKIT Mutant Inhibitors
The GIST430 cell line expressing constitutive active cKIT receptor tyrosine kinase (Δ560-576 deletion) and the Imatinib resistant GIST430/654 cell line expressing mutated constitutively active cKIT receptor tyrosine kinase (Δ560-576 deletion and V654A point mutation) were employed for assessing cellular potency of compounds. Cellular activity of mutant cKIT was determined by the degree of cKIT autophosphorylation at tyrosine 307 using a Luminex-based bead assay. GIST430 cells were plated with 22,000 cells per well of a 96-well plate in 100 μl medium (85% IMDM/15% FCS) and GIST430/654 cells were plated with 25,000 cells per well of a 96-well plate in 100 μl medium (85% IMDM/15% FCS supplemented with 100 nM Imatinib). At the following day compounds were added in a serial dilution for 45 min. Then, cells were lysed with 90 μl lysis buffer (20 mM Hepes pH 7.5, 200 mM NaCl, 1.5 mM MgCl2×6H2O, 0.4 mM EDTA, 1% Triton-X-100, 1% Phosphatase-Inhibitor II, 20 mM β-Glycerolphosphat, 0.1% Protease-Inhibitor Cocktail III, 0.01% Benzonase) and lysates were cleared by centrifugation through a 96-well filter plate (0.65 μm). Samples were incubated with Luminex-beads which were coupled with an anti-total cKIT antibody overnight at 4° C. under gentle agitation. For detection of phospho-Y307-cKIT a phosphospecific antibody and a species-specific PE-labeled secondary antibody were added. The amount of phospho-Y307-cKIT was determined in a Luminex 200 instrument measuring 100 events per well within 60 seconds.
Counts from samples treated with compounds were calculated as percent of control from solvent treated (0.3% DMSO) samples. Dose-response curves were fitted and IC50 values were determined using Genedata Screener software.

T1 sequence (P10721 544-976 V654A): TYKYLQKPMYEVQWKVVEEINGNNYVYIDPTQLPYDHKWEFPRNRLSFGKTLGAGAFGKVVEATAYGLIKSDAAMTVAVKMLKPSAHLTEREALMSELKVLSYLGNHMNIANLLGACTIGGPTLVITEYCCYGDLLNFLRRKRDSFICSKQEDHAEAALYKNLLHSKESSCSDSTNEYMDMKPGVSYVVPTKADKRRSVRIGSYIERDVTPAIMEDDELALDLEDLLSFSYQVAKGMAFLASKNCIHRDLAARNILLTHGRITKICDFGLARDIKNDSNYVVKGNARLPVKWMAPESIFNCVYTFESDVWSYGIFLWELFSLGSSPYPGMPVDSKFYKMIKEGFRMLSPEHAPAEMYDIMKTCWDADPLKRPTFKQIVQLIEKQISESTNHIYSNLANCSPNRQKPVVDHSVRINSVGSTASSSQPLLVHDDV
T2 sequence (P10721 with tags, fused parts or gaps DEL560-576/V654A): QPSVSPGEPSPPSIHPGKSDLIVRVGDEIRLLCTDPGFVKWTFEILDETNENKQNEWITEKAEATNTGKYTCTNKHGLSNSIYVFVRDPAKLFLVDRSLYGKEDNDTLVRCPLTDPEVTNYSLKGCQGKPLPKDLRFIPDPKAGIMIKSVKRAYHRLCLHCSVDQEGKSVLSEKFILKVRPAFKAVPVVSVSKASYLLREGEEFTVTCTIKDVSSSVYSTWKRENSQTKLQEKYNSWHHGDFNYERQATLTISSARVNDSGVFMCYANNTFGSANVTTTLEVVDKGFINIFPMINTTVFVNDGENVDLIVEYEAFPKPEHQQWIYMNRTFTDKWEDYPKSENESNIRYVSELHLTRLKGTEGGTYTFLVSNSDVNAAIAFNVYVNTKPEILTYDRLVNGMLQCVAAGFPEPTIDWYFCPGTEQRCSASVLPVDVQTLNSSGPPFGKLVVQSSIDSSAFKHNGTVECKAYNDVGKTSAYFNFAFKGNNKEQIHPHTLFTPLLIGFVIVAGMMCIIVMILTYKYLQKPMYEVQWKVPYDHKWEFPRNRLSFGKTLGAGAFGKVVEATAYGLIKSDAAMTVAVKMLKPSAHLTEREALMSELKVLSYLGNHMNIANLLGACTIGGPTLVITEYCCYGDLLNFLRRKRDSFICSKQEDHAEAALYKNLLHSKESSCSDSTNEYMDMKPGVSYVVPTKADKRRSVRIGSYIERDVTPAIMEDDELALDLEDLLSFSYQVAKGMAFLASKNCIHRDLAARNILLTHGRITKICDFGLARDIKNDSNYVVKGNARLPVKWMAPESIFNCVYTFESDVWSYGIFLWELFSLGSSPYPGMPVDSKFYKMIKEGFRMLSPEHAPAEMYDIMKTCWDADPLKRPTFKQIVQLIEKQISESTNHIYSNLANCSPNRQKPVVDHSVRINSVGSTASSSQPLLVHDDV

In the case of `Cn1cc(-c2ccc(CNc3cc(-c4cnc5cc(OCCN6CC7CC(C6)O7)ccn45)ncn3)cc2)cn1` [A103, [4-(1-methyl-1H-pyrazol-4-yl)-benzyl]-(6-{7-[2-(6-oxa-3-aza-bicyclo[3.1.1]hept-3-yl)-ethoxy]-imidazo[1,2-a]pyridin-3-yl}-pyrimidin-4-yl)-amine], the IC50 on c-Kit(V654A) turned out to be 9.5 nM; in assay [1], 120 nM. The like results for `COc1ccn2c(-c3cc(NCc4ccc(-c5nccc(OC)n5)cc4)ncn3)cnc2c1` [A34, 6-{7-methoxyimidazo[1,2-a]pyridin-3-yl}-N-{[4-(4-methoxypyrimidin-2-yl)phenyl]methyl}pyrimidin-4-amine] were, in that order, 52 nM and 740 nM. `COc1ccn2c(-c3cc(NCc4ccc(-c5cnn(CC6CNC6)c5)cc4)ncn3)cnc2c1` [A159, N-[(4-{1-[(azetidin-3-yl)methyl]-1H-pyrazol-4-yl}phenyl)methyl]-6-{7-methoxyimidazo[1,2-a]pyridin-3-yl}pyrimidin-4-amine]: the IC50 on c-Kit(V654A) amounted to 88 nM. As to `COc1ccn2c(-c3cc(NCc4ccc(-c5cnn(CCN6CCOCC6)c5)cc4)ncn3)cnc2c1` [A22, [6-(7-methoxy-imidazo[1,2-a]pyridin-3-yl)-pyrimidin-4-yl]-{4-[1-(2-morpholin-4-yl-ethyl)-1H-pyrazol-4-yl]-benzyl}-amine], the IC50 at c-Kit(V654A) was found to be 110 nM. Consider `Cn1cc(-c2ccc(CNc3cc(-c4cnc5cc(OCC6CCN(CC#N)CC6)ccn45)ncn3)cc2)cn1` [A188, [4-(3-{6-[4-(1methyl-1H-pyrazol-4-yl)-benzylamino]-pyrimidin-4-yl}-imidazo[1,2-a]pyridin-7-yloxymethyl)-piperidin-1-yl]-acetonitrile], for which the IC50 on c-Kit(V654A) amounted to 9.5 nM; in assay [1], 190 nM. Regarding `Cn1ncc(-c2ccc(CNc3cc(-c4cnc5cc(OCCc6cccnc6)ccn45)ncn3)cc2)n1` [A126, [4-(2-methyl-2H-[1,2,3]triazol-4-yl)-benzyl]-{6-[7-(2-pyridin-3-yl-ethoxy)-imidazo[1,2-a]pyridin-3-yl]-pyrimidin-4-yl}-amine], the values for the IC50 (at c-Kit(V654A); in assay [1]) were 16 nM and 140 nM, respectively. Turning to `Cn1cc(-c2ccc(CNc3cc(-c4cnc5cc(OCc6nccn6C)ccn45)ncn3)cc2)nn1` [A110, {6-[7-(1-methyl-1H-imidazol-2-ylmethoxy)-imidazo[1,2-a]pyridin-3-yl]-pyrimidin-4-yl}-[4-(1-methyl-1H-[1,2,3]triazol-4-yl)-benzyl]-amine], the IC50 at c-Kit(V654A) was determined as 110 nM. With `Fc1cc(N2CCCC2)ncc1CNc1cc(-c2cnc3ccccn23)ncn1` [A152, (4-fluoro-6-pyrrolidin-1-yl-pyridin-3-ylmethyl)-(6-imidazo[1,2-a]pyridin-3-yl-pyrimidin-4-yl)-amine], the IC50 was found to be 3.8 nM on c-Kit(V654A) and 370 nM in assay [1]. Turning to `COc1ccn2c(-c3cc(NCc4ccc(-c5nc(C)no5)cc4)ncn3)cnc2c1` [A47, 6-{7-methoxyimidazo[1,2-a]pyridin-3-yl}-N-{[4-(3-methyl-1,2,4-oxadiazol-5-yl)phenyl]methyl}pyrimidin-4-amine], the IC50 at c-Kit(V654A) was 10 nM; in assay [1], 190 nM. With `COc1ccn2c(-c3cc(NCc4ccc(-c5cn(CC(C)(C)O)nc5N)cc4)ncn3)cnc2c1` [A229, 1-[3-amino-4-(4-{[6-(7-methoxy-imidazo[1,2-a]pyridin-3-yl)-pyrimidin-4-ylamino]-methyl}-phenyl)-pyrazol-1-yl]-2-methyl-propan-2-ol], the IC50 on c-Kit(V654A) turned out to be 87 nM; in assay [1], 660 nM. As for `COc1ccn2c(-c3cc(NCc4ccc(-c5cnn(CCN6CCCC6)c5)cc4)ncn3)cnc2c1` [A24, [6-(7-methoxy-imidazo[1,2-a]pyridin-3-yl)-pyrimidin-4-yl]-{4-[1-(2-pyrrolidin-1-yl-ethyl)-1H-pyrazol-4-yl]-benzyl}-amine], the IC50 on c-Kit(V654A) was 160 nM.

As for `Cn1ncc(-c2ccc(CNc3cc(-c4cnc5cc(OCCCN6CCN(C7CC7)CC6)ccn45)ncn3)cc2)n1` [A253, (6-{7-[3-(4-cyclopropyl-piperazin-1-yl)-propoxy]-imidazo[1,2-a]pyridin-3-yl}-pyrimidin-4-yl)-[4-(2-methyl-2H-[1,2,3]triazol-4-yl)-benzyl]-amine], the IC50 at c-Kit(V654A) is 6.5 nM. Consider `Cn1cc(-c2ccc(CNc3cc(-c4cnc5cc(OCCCN6CC[S+]([O-])CC6)ccn45)ncn3)cc2)cn1` [A241, [4-(1-methyl-1H-pyrazol-4-yl)-benzyl]-(6-{7-[3-(1-oxo-1|4-thiomorpholin-4-yl)-propoxy]-imidazo[1,2-a]pyridin-3-yl}-pyrimidin-4-yl)-amine], for which, at c-Kit(V654A), the IC50 was 6.5 nM. Still for that read-out and setting: the figure for `COc1ccn2c(-c3cc(NCc4ccc(-c5cnc(CO)n5C)cc4)ncn3)cnc2c1` [A174, [5-(4-{[6-(7-Methoxy-imidazo[1,2-a]pyridin-3-yl)-pyrimidin-4-ylamino]-methyl}-phenyl)-1-methyl-1H-imidazol-2-yl]-methanol] is 260 nM; for `Cn1ncc(-c2ccc(CNc3cc(-c4cnc5cc(N6CCN(C7COC7)CC6)ccn45)ncn3)cc2)n1` [A244, [4-(2-methyl-2H-[1,2,3]triazol-4-yl)-benzyl]-{6-[7-(4-oxetan-3-yl-piperazin-1-yl)-imidazo[1,2-a]pyridin-3-yl]-pyrimidin-4-yl}-amine] it is 21 nM; for `Cn1cc(-c2ccc(CNc3cc(-c4cnc5cc(OCCCN6CC(F)C6)ccn45)ncn3)cc2)cn1` [A240, (6-{7-[3-(3-fluoro-azetidin-1-yl)-propoxy]-imidazo[1,2-a]pyridin-3-yl}-pyrimidin-4-yl)-[4-(1-methyl-1H-pyrazol-4-yl)-benzyl]-amine] it is 7.3 nM. `COc1ccn2c(-c3cc(NCc4ccc(-n5cnc6ccccc65)cc4)ncn3)cnc2c1` [A27, N-{[4-(1H-1,3-benzodiazol-1-yl)phenyl]methyl}-6-{7-methoxyimidazo[1,2-a]pyridin-3-yl}pyrimidin-4-amine]: at c-Kit(V654A), the IC50 stood at 63 nM. With `Cn1cc(-c2ccc(CNc3cc(-c4cnc5cc(OCCN6CCC67COC7)ccn45)ncn3)cc2)cn1` [A207, [4-(1-methyl-1H-pyrazol-4-yl)-benzyl]-(6-{7-[2-(6-oxa-1-aza-spiro[3.3]hept-1-yl)-ethoxy]-imidazo[1,2-a]pyridin-3-yl}-pyrimidin-4-yl)-amine], the IC50 on c-Kit(V654A) is 8.7 nM.

Take `Cn1cc(-c2ccc(CNc3cc(-c4cnc5cc(OCC6CN(CC(F)(F)F)C6)ccn45)ncn3)cc2)cn1` [A254, N-{[4-(1-methyl-1H-pyrazol-4-yl)phenyl]methyl}-6-(7-{[1-(2,2,2-trifluoroethyl)azetidin-3-yl]methoxy}imidazo[1,2-a]pyridin-3-yl)pyrimidin-4-amine]: the IC50 on c-Kit(V654A) was found to be 24 nM. Turning to `COc1ccn2c(-c3cc(OC(C)c4ccc(-c5cnn(C)c5)cc4)ncn3)cnc2c1` (stereo not shown) [A171, 7-methoxy-3-(6-{1-[4-(1-methyl-1H-pyrazol-4-yl)-phenyl]-ethoxy}-pyrimidin-4-yl)-imidazo[1,2-a]pyridine], the IC50 at c-Kit(V654A) is 58 nM. As to `COCC(COC)Oc1ccn2c(-c3cc(NCc4ccc(-c5cnn(C)c5)cc4)ncn3)cnc2c1` [A54, {6-[7-(2-methoxy-1-methoxymethyl-ethoxy)-imidazo[1,2-a]pyridin-3-yl]-pyrimidin-4-yl}-[4-(1-methyl-1H-pyrazol-4-yl)-benzyl]-amine], at c-Kit(V654A), the IC50 was 120 nM. Regarding `CN1CC(F)(COc2ccn3c(-c4cc(NCc5ccc(-c6cnn(C)c6)cc5)ncn4)cnc3c2)C1` [A256, 6-{7-[(3-fluoro-1-methylazetidin-3-yl)methoxy]imidazo[1,2-a]pyridin-3-yl}-N-{[4-(1-methyl-1H-pyrazol-4-yl)phenyl]methyl}pyrimidin-4-amine], on c-Kit(V654A), the IC50 amounted to 12 nM. As for `COc1ccn2c(-c3cc(NCc4ccc(-c5cnc(C)nc5N)cc4)ncn3)cnc2c1` [A43, 5-(4-{[(6-{7-methoxyimidazo[1,2-a]pyridin-3-yl}pyrimidin-4-yl)amino]methyl}phenyl)-2-methylpyrimidin-4-amine], the IC50 at c-Kit(V654A) was determined as 260 nM.

Take `COc1ccn2c(-c3cc(NCc4ccc(-c5cnn(C)n5)nc4)ncn3)cnc2c1` [A45, [6-(7-methoxy-imidazo[1,2-a]pyridin-3-yl)-pyrimidin-4-yl]-[6-(2-methyl-2H-[1,2,3]triazol-4-yl)-pyridin-3-ylmethyl]-amine]: on c-Kit(V654A), the IC50 was determined as 130 nM.
